Experiments:
Type in all cases: cell-based
[1] = system: SW480 colon cancer cells; assay: Cell viability assay (CellTiter-Blue) in SW480 colon cancer cells; conditions: Homo sapiens, 96 h, four days; for inhibition at 10 µM: given where EC50 >10 μM, read-out: percent inhibition at 10 μM; for EC50: CellTiter-Blue
Summary of the method: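 SW480 cells (~2×10^3 per well) were exposed to compound for four days at 37 °C/5% CO2, using 8-point 1:3 dilutions from 10 μM to 0.0045 μM in duplicate. Viability was read by resazurin reduction (CellTiter-Blue, ~3 h, Ex 560/Em 590 nm). EC50 came from non-linear regression; above 10 μM, percent inhibition at 10 μM is given.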

[2] = system: Primary human fibroblasts derived from IPF patients (LL29 cells) treated with TGF-β1; assay: Inhibition of the fibrotic process: αSMA staining in TGF-β1-treated primary human fibroblasts from IPF patients (LL29 cells); conditions: Fibroblast, 96 h; for EC50: % αSMA-positive LL29 cells, TGF-β1 20 ng/mL, 4 days
Summary of the method: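 LL29 IPF-patient fibroblasts in 1% FBS stimulated with TGF-β1 (20 ng/mL) and compound (10 μM–1.87 nM, 0.1% DMSO) for 4 days at 37 °C. SYTOX-positive cells excluded; % αSMA-positive cells imaged, normalized to TGF-β1/DMSO wells; EC50 by nonlinear regression, else % inhibition at 10 μM.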

[3] = system: IL-6; assay: Inhibition of IL-6 in LPS-stimulated THP-1 human monocyte cells (HTRF); conditions: for EC50: IL-6 inhibition, LPS-stimulated THP-1 cells, HTRF; for inhibition at 10 µM: THP-1, printed beside >10 μM EC50, top concentration 10 μM, meaning not given, read-out: percentage in parentheses after EC50 >10
Summary of the method: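 THP-1 cells serum-reduced (1% FBS, 24 h), then 5000 cells/well preincubated 2 h with compound (10-point 1:3 series from 10 μM, 0.1% DMSO) before 500 ng/mL LPS for 22 h at 37 °C. Secreted IL-6 quantified by HTRF 665/620 ratio; DMSO-normalised duplicates fitted to four-parameter EC50; above 10 μM, % inhibition at 10 μM given.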

SMILES	inhibition at 10 µM [1]	EC50 [1]	EC50 [2]	EC50 [3]	inhibition at 10 µM ([2]; at 10 μM, given where EC50 >10 μM, αSMA, LL29 cells, TGF-β1, 4 days, read-out: percent inhibition at 10 μM)	inhibition at 10 µM [3]
Fc1cccc(-c2cccc3[nH]c(-c4n[nH]c5ccc(-c6ccncc6)cc45)cc23)c1 [Compound 18, 3-(4-(3-Fluorophenyl)-1H-indol-2-yl)-5-(pyridin-4-yl)-1H-indazole]	10.2%	> 10 µM	5.55 µM	0.031 µM		
CC(C)(C)CC(=O)Nc1cncc(-c2ccc3[nH]nc(-c4cc5c(-c6ccsc6)cccc5[nH]4)c3c2)c1 [Compound 296, 3,3-Dimethyl-N-(5-(3-(4-(thiophen-3-yl)-1H-indol-2-yl)-1H-indazol-5-yl)pyridin-3-yl)butanamide]		0.97 µM	> 10 µM	> 10 µM	21%	31.6%
O=C(Nc1cncc(-c2ccc3[nH]nc(-c4cc5c(-c6ccsc6)cccc5[nH]4)c3c2)c1)C1CCCCC1 [Compound 303, N-(5-(3-(4-(Thiophen-3-yl)-1H-indol-2-yl)-1H-indazol-5-yl)pyridin-3-yl) cyclohexanecarboxamide]	15%	> 10 µM	2.79 µM	> 10 µM		43.9%
Nc1cncc(-c2ccc3[nH]nc(-c4cc5c(-c6ccoc6)cccc5[nH]4)c3c2)c1 [Compound 311, 5-(3-(4-(Furan-3-yl)-1H-indol-2-yl)-1H-indazol-5-yl)pyridin-3-amine]		0.294 µM	5.04 µM	0.519 µM		
O=C(Cc1ccccc1)Nc1cncc(-c2ccc3[nH]nc(-c4cc5c(-c6ccoc6)cccc5[nH]4)c3c2)c1 [Compound 318, N-(5-(3-(4-(Furan-3-yl)-1H-indol-2-yl)-1H-indazol-5-yl)pyridin-3-yl)-2-phenylacetamide]	31.9%	> 10 µM	0.844 µM	0.304 µM		
c1cc(-c2ccoc2)c2cc(-c3n[nH]c4ccc(-c5cncc(CNCC6CCCC6)c5)cc34)[nH]c2c1 [Compound 333, 1-Cyclopentyl-N-((5-(3-(4-(furan-3-yl)-1H-indol-2-yl)-1H-indazol-5-yl)pyridin-3-yl)methyl)methanamine]	19.1%	> 10 µM	3.74 µM	7.58 µM		
